The values that follow come from patent publication US7208153B2, “Method for the improvement of neuronal regeneration” (Neuraxo Biopharmaceuticals GmbH, priority 1997, dated 2007).

Test [1] concerns basal membrane formation (collagen IV) in the lesion site. Kind of test: Lesion-induced basal membrane (collagen IV) deposition after postcommissural fornix transection, immunohistochemistry. Format: in vivo, Wistar rats. How it is done:
In an effort to modulate postlesion BM deposition, either polyclonal antibodies against collagen IV (anti-Coll IV; n=14) or the iron chelator a, a′-dipyridyl (DPY; n=9) were injected locally into the lesion center immediately after transection. […] (13) and enhanced procollagen degradation (14). Control animals received a PBS injection (n=9) or were sham operated (n=3). Basal membrane formation was studied in response to antibody and drug treatment using immunohistochemical methods. […] At 2 weeks after lesion+injection only a very small number of Coll-immunreactive structures perpendicular to the tract course had developed (FIG. 1e, f).
Surgery. The left postcommissural fornix of 42 Wistar rats (180–210 g) was transected stereotactically at a distance of about 1 mm proximal to the target, the mammillary body, using a Scouten wire knife as described previously (9). The completeness of transection was confirmed by serial reconstruction of the lesion site for each of the animals. Immediately after transection animals received a topical application (1.6 μl) of either polyclonal antibodies against collagen, IV (anti-Coll IV, Biogenex, 50–100 μg/ml, n=14) or the iron chelator a, a′-dipyridyl (DPY, 1–10 mM, n=9). Substances were pressure injected (injection time 10 min) directly into the lesion site via a micropipette coupled to a microsyringe. Controls received equal amounts of phosphate-buffered saline (n=9) or sham operation (n=3).
Immunohistochemical staining. After a survival time of 4 days (d), 6 d, 2 weeks (w), 4 w and 6 w after surgery brains were removed, frozen in isopentan (−50/−60° C.) and cut into serial sagittal 10 μm thick sections. […]

In test [2] the test system is transected postcommissural fornix axons. The experiment in a line: Regeneration of transected postcommissural fornix axons across the lesion site (NF immunohistochemistry, anterograde tracing, electron microscopy). Format: in vivo, Wistar rats.
The subject of test [3] is Na+-dependent action potentials of fornix fibers. Set-up: species or system rats.

Entries after “also recorded” stand apart in the source; their conditions may differ.

With `c1ccc(-c2ccccn2)nc1` [DPY, a, a′-dipyridyl], the “lesion-induced BM deposition” value in test [1] (local injection) is “significantly reduced”. In addition, in test [1] (single local injection immediately after transection, anti-Coll IV 80–160 ng or DPY 1.6–16 μmol, all examined survival time points), the “Coll-immunopositive laminae and blood vessels in the lesion center and the fornix stumps” value was “massive and specific reduction”. Further, the “Collagen IV deposition in the lesion site” value in test [1] (two weeks postsurgery, FIG. 1e, f) is given as “markedly reduced”. Besides, in test [2] (6 weeks postsurgery, FIG. 2), the “regeneration of transected fornix fibers across the lesion site (NF-immunohistochemistry)” value was “fibers traverse the former lesion site”. Also, the “elongation of fornix axons into and across the lesion center” value in test [2] (between 2 and 4 weeks after lesion+injection, immunocytochemical staining) is “large numbers of axons entered and traversed the lesion center”.

`NC1=N[C@H](O)[C@H]2[C@H]3O[C@]4(O)O[C@@H]([C@@H](O)[C@@]2(N1)[C@@H]4O)[C@]3(O)CO` [Tetrodotoxin]: the stimulus-evoked extracellular response result in test [3] is “blocks the stimulus-evoked response; also recorded: blocked”.
